Reference: PubChem BioAssay (NCI)
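Five compound concentrations were applied to cells in 96-well plates for 48 hours; endpoints were derived by simple linear interpolation of the resulting dose-response curve. Definition used: TGI = concentration required for complete inhibition of growth.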

How the values were obtained:
Test in all cases: inhibition of tumour cell growth, NCI panel, 48 h
DU-145 prostate = system: DU-145 prostate
OVCAR-4 ovarian = system: OVCAR-4 ovarian
SK-MEL-5 melanoma = system: SK-MEL-5 melanoma
SK-MEL-2 melanoma = system: SK-MEL-2 melanoma
SNB-75 CNS = system: SNB-75 CNS
UO-31 renal = system: UO-31 renal
HCT-116 colon = system: HCT-116 colon
NCI/ADR-RES ovarian = system: NCI/ADR-RES ovarian
A549 NSCLC = system: A549 NSCLC
CAKI-1 renal = system: CAKI-1 renal
HOP-62 NSCLC = system: HOP-62 NSCLC
SF-295 CNS = system: SF-295 CNS
SK-MEL-28 melanoma = system: SK-MEL-28 melanoma
SNB-19 CNS = system: SNB-19 CNS
SK-OV-3 ovarian = system: SK-OV-3 ovarian
MDA-MB-231 breast = system: MDA-MB-231 breast
BT-549 breast = system: BT-549 breast
KM12 colon = system: KM12 colon
786-0 renal = system: 786-0 renal

CC(=O)C1C(=O)C(=O)N(c2cccc([N+](=O)[O-])c2)C1=O (stereo not given)
TGI (DU-145 prostate): > 100 µM | TGI (OVCAR-4 ovarian): > 100 µM | TGI (SK-MEL-5 melanoma): > 100 µM | TGI (SK-MEL-2 melanoma): > 100 µM | TGI (SNB-75 CNS): > 100 µM | TGI (UO-31 renal): > 100 µM | TGI (HCT-116 colon): > 100 µM | TGI (NCI/ADR-RES ovarian): > 100 µM | TGI (A549 NSCLC): > 100 µM | TGI (CAKI-1 renal): > 100 µM | TGI (HOP-62 NSCLC): > 100 µM | TGI (SF-295 CNS): > 100 µM | TGI (SK-MEL-28 melanoma): > 100 µM | TGI (SNB-19 CNS): > 100 µM | TGI (SK-OV-3 ovarian): > 100 µM | TGI (MDA-MB-231 breast): > 100 µM | TGI (BT-549 breast): > 100 µM | TGI (KM12 colon): > 100 µM | TGI (786-0 renal): > 100 µM

C[C@]12CC[C@@H]3c4cc(OCC(F)(F)F)c(O)cc4CC[C@H]3[C@@H]1CC[C@@H]2O
TGI (DU-145 prostate): 29.4 µM | TGI (OVCAR-4 ovarian): > 53.1 µM | TGI (SK-MEL-5 melanoma): 15.4 µM | TGI (SK-MEL-2 melanoma): 18.5 µM | TGI (SNB-75 CNS): 13.2 µM | TGI (UO-31 renal): 22.3 µM | TGI (HCT-116 colon): 16.7 µM | TGI (NCI/ADR-RES ovarian): 36.8 µM | TGI (A549 NSCLC): 20.6 µM | TGI (CAKI-1 renal): 29.9 µM | TGI (HOP-62 NSCLC): 26.7 µM | TGI (SF-295 CNS): 11.6 µM | TGI (SK-MEL-28 melanoma): 26.2 µM | TGI (SNB-19 CNS): 18.1 µM | TGI (SK-OV-3 ovarian): 16.8 µM | TGI (MDA-MB-231 breast): 3.11 µM | TGI (BT-549 breast): 89.6 µM | TGI (KM12 colon): 12.7 µM | TGI (786-0 renal): 18.1 µM

O=c1[nH]cc(-c2c[nH]c3ccccc23)nc1-c1c[nH]c2ccccc12
TGI (DU-145 prostate): 28.1 µM | TGI (OVCAR-4 ovarian): 43.3 µM | TGI (SK-MEL-5 melanoma): 26.1 µM | TGI (SK-MEL-2 melanoma): 34.2 µM | TGI (SNB-75 CNS): 23.7 µM | TGI (UO-31 renal): 29.8 µM | TGI (HCT-116 colon): 26.7 µM | TGI (NCI/ADR-RES ovarian): 49.8 µM | TGI (A549 NSCLC): > 100 µM | TGI (CAKI-1 renal): 24.6 µM | TGI (HOP-62 NSCLC): 27.3 µM | TGI (SF-295 CNS): 19 µM | TGI (SK-MEL-28 melanoma): 31.7 µM | TGI (SNB-19 CNS): 34.6 µM | TGI (SK-OV-3 ovarian): 26.2 µM | TGI (MDA-MB-231 breast): 89.2 µM | TGI (BT-549 breast): 28.7 µM | TGI (KM12 colon): > 100 µM | TGI (786-0 renal): 23.5 µM

C=CC[C@@H](N)C(=O)N(C)[C@@H](C)[C@@H](O)c1ccccc1
TGI (DU-145 prostate): > 100 µM | TGI (OVCAR-4 ovarian): > 100 µM | TGI (SK-MEL-5 melanoma): > 100 µM | TGI (SK-MEL-2 melanoma): > 100 µM | TGI (SNB-75 CNS): > 100 µM | TGI (UO-31 renal): > 100 µM | TGI (HCT-116 colon): > 100 µM | TGI (NCI/ADR-RES ovarian): > 100 µM | TGI (A549 NSCLC): > 100 µM | TGI (CAKI-1 renal): > 100 µM | TGI (HOP-62 NSCLC): > 100 µM | TGI (SF-295 CNS): > 100 µM | TGI (SK-MEL-28 melanoma): > 100 µM | TGI (SNB-19 CNS): > 100 µM | TGI (SK-OV-3 ovarian): > 100 µM | TGI (MDA-MB-231 breast): > 100 µM | TGI (BT-549 breast): > 100 µM | TGI (KM12 colon): > 100 µM | TGI (786-0 renal): > 100 µM

COCc1nc(N)nc(N2N=C(C)CC2(C)C)n1
TGI (DU-145 prostate): > 100 µM | TGI (OVCAR-4 ovarian): > 100 µM | TGI (SK-MEL-5 melanoma): > 100 µM | TGI (SK-MEL-2 melanoma): > 100 µM | TGI (SNB-75 CNS): > 100 µM | TGI (UO-31 renal): > 100 µM | TGI (HCT-116 colon): > 100 µM | TGI (NCI/ADR-RES ovarian): > 100 µM | TGI (A549 NSCLC): > 100 µM | TGI (CAKI-1 renal): > 100 µM | TGI (HOP-62 NSCLC): > 100 µM | TGI (SF-295 CNS): > 100 µM | TGI (SK-MEL-28 melanoma): > 100 µM | TGI (SNB-19 CNS): > 100 µM | TGI (SK-OV-3 ovarian): > 100 µM | TGI (MDA-MB-231 breast): > 100 µM | TGI (BT-549 breast): > 100 µM | TGI (KM12 colon): > 100 µM | TGI (786-0 renal): > 100 µM

CC(C)(C)OC(=O)N/N=C(/N)Cc1ccc(Cl)cc1
TGI (DU-145 prostate): > 100 µM | TGI (OVCAR-4 ovarian): > 100 µM | TGI (SK-MEL-5 melanoma): > 100 µM | TGI (SK-MEL-2 melanoma): > 100 µM | TGI (SNB-75 CNS): > 100 µM | TGI (UO-31 renal): > 100 µM | TGI (HCT-116 colon): > 100 µM | TGI (NCI/ADR-RES ovarian): > 100 µM | TGI (A549 NSCLC): > 100 µM | TGI (CAKI-1 renal): > 100 µM | TGI (HOP-62 NSCLC): > 100 µM | TGI (SF-295 CNS): > 100 µM | TGI (SK-MEL-28 melanoma): > 100 µM | TGI (SNB-19 CNS): > 100 µM | TGI (SK-OV-3 ovarian): > 100 µM | TGI (MDA-MB-231 breast): > 100 µM | TGI (BT-549 breast): > 100 µM | TGI (KM12 colon): > 100 µM | TGI (786-0 renal): > 100 µM

CN(C)c1ccc(C(Cc2ccccc2)C2NC(=S)NC2=O)cc1 (stereo not given)
TGI (DU-145 prostate): > 100 µM | TGI (OVCAR-4 ovarian): > 100 µM | TGI (SK-MEL-5 melanoma): > 100 µM | TGI (SK-MEL-2 melanoma): > 100 µM | TGI (SNB-75 CNS): > 100 µM | TGI (UO-31 renal): > 100 µM | TGI (HCT-116 colon): > 100 µM | TGI (NCI/ADR-RES ovarian): > 100 µM | TGI (A549 NSCLC): > 100 µM | TGI (CAKI-1 renal): > 100 µM | TGI (HOP-62 NSCLC): > 100 µM | TGI (SF-295 CNS): > 100 µM | TGI (SK-MEL-28 melanoma): > 100 µM | TGI (SNB-19 CNS): > 100 µM | TGI (SK-OV-3 ovarian): > 100 µM | TGI (MDA-MB-231 breast): > 100 µM | TGI (BT-549 breast): > 100 µM | TGI (KM12 colon): > 100 µM | TGI (786-0 renal): > 100 µM

NC(N)=NCC[C@H](NC(=O)OCCCCCn1ccc(=O)[nH]c1=O)C(=O)O
TGI (DU-145 prostate): > 100 µM | TGI (OVCAR-4 ovarian): > 100 µM | TGI (SK-MEL-5 melanoma): > 100 µM | TGI (SK-MEL-2 melanoma): > 100 µM | TGI (SNB-75 CNS): > 100 µM | TGI (UO-31 renal): > 100 µM | TGI (HCT-116 colon): > 100 µM | TGI (NCI/ADR-RES ovarian): > 100 µM | TGI (A549 NSCLC): > 100 µM | TGI (CAKI-1 renal): > 100 µM | TGI (HOP-62 NSCLC): > 100 µM | TGI (SF-295 CNS): > 100 µM | TGI (SK-MEL-28 melanoma): > 100 µM | TGI (SNB-19 CNS): > 100 µM | TGI (SK-OV-3 ovarian): > 100 µM | TGI (MDA-MB-231 breast): > 100 µM | TGI (BT-549 breast): > 100 µM | TGI (KM12 colon): > 100 µM | TGI (786-0 renal): > 100 µM

C=CCC1(OCc2ccccc2)C(=O)C(=O)OC1C1COC(C)(C)O1 (stereo not given)
TGI (DU-145 prostate): > 100 µM | TGI (OVCAR-4 ovarian): > 100 µM | TGI (SK-MEL-5 melanoma): > 100 µM | TGI (SK-MEL-2 melanoma): > 100 µM | TGI (SNB-75 CNS): > 100 µM | TGI (UO-31 renal): > 100 µM | TGI (HCT-116 colon): > 100 µM | TGI (NCI/ADR-RES ovarian): > 100 µM | TGI (A549 NSCLC): > 100 µM | TGI (CAKI-1 renal): > 100 µM | TGI (HOP-62 NSCLC): > 100 µM | TGI (SF-295 CNS): > 100 µM | TGI (SK-MEL-28 melanoma): > 100 µM | TGI (SNB-19 CNS): > 100 µM | TGI (SK-OV-3 ovarian): > 100 µM | TGI (MDA-MB-231 breast): > 100 µM | TGI (BT-549 breast): > 100 µM | TGI (KM12 colon): > 100 µM | TGI (786-0 renal): > 100 µM

Nc1n[n+](CC(=O)c2ccccc2)c2sc(-c3ccccc3)nn12
TGI (DU-145 prostate): > 100 µM | TGI (OVCAR-4 ovarian): > 100 µM | TGI (SK-MEL-5 melanoma): > 100 µM | TGI (SK-MEL-2 melanoma): > 100 µM | TGI (SNB-75 CNS): > 100 µM | TGI (UO-31 renal): > 100 µM | TGI (HCT-116 colon): > 100 µM | TGI (NCI/ADR-RES ovarian): > 100 µM | TGI (A549 NSCLC): > 100 µM | TGI (CAKI-1 renal): > 100 µM | TGI (HOP-62 NSCLC): > 100 µM | TGI (SF-295 CNS): > 100 µM | TGI (SK-MEL-28 melanoma): > 100 µM | TGI (SNB-19 CNS): > 100 µM | TGI (SK-OV-3 ovarian): > 100 µM | TGI (MDA-MB-231 breast): > 100 µM | TGI (BT-549 breast): > 100 µM | TGI (KM12 colon): > 100 µM | TGI (786-0 renal): > 100 µM
